ChEMBL document CHEMBL6114967, “Design and synthesis of novel sulfur-substituted triptolide with the ability to induce autophagy through inhibition of SRSF1 expression” (Eur J Med Chem, 2025)
pIC50: −log10 of the molar value. Activity calls are given as the source filed them. The calls are words filed in the database; no cut-off is given here.

Tests used:
[1] = Selectivity index, ratio of IC50 for antiproliferative activity against human LO2 cells to IC50 for antiproliferative activity against human HGC-27 cells; type: toxicity, cell-based; conditions: LO2 cells and HGC-27 cells, read-out: Ratio IC50
HGC-27 [2] = experiment: Induction of cell cycle arrest in human HGC-27 cells assessed as increase in P21 expression at 0.5 to 2 uM by Western blotting analysis; type: functional, cell-based; conditions: dose 0.5-2 µM
AGS [3] = experiment: Induction of autophagy in human AGS cells assessed as upregulation of ATG5 protein level at 0.5 to 2 uM incubated for 48 hrs by Western blotting analysis; type: functional, cell-based; conditions: dose 0.5-2 µM
AGS [4] = experiment: Induction of apoptosis in human AGS cells assessed as early apoptotic cells at 1 uM incubated for 48 hrs by annexin V-FITC and PI staining based flow cytometry analysis (reference value: 4.44%); type: functional
MCF7 = experiment: Antiproliferative activity against human MCF7 cells assessed as inhibition of cell proliferation incubated for 72 hrs by MTT assay; type: functional, cell-based; conditions: MCF7, 72 h
HGC-27 [5] = experiment: Induction of apoptosis in human HGC-27 cells assessed as early apoptotic cells at 1 uM incubated for 48 hrs by annexin V-FITC and PI staining based flow cytometry analysis (reference value: 3.13%); type: functional
HGC-27 [6] = experiment: Induction of apoptosis in human HGC-27 cells assessed as late apoptotic cells at 1 uM incubated for 48 hrs by annexin V-FITC and PI staining based flow cytometry analysis (reference value: 5.02%); type: functional
HGC-27 [7] = experiment: Upregulation of MAP1LC3B2 mRNA expression in human HGC-27 cells at 2 uM incubated for 24 hrs; type: functional, cell-based
AGS [8] = experiment: Induction of apoptosis in human AGS cells assessed as increase in cleaved PARP expression at 0.5 to 2 uM incubated overnight by Western blotting analysis; type: functional, cell-based; conditions: dose 0.5-2 µM
AGS [9] = experiment: Antiproliferative activity against human AGS cells assessed as inhibition of cell proliferation incubated for 72 hrs by MTT assay; type: functional, cell-based
HGC-27 [10] = experiment: Induction of cell cycle arrest in human HGC-27 cells assessed as reduction in CyclinE2 expression at 0.5 to 2 uM by Western blotting analysis; type: functional, cell-based; conditions: dose 0.5-2 µM
AGS [11] = experiment: Induction of autophagy in human AGS cells assessed as downregulation of P62 protein level at 0.5 to 2 uM incubated for 48 hrs by Western blotting analysis; type: functional, cell-based; conditions: dose 0.5-2 µM
HGC-27 [12] = experiment: Induction of apoptosis in human HGC-27 cells assessed as viable cells at 0.5 uM incubated for 48 hrs by annexin V-FITC and PI staining based flow cytometry analysis (reference value: 91.8%); type: functional; conditions: read-out: Activity
SGC-7901 = experiment: Antiproliferative activity against human SGC-7901 cells assessed as inhibition of cell proliferation incubated for 72 hrs by MTT assay; type: functional, cell-based; conditions: SGC-7901, 72 h
[13] = Toxicity in male BALB/c nude mouse assessed as change in body weight at 25 to 100 mg/kg, ip administered daily and measured after 15 days; type: organism-based; conditions: in vivo, 360 h, dose 25-100 mg/kg, time 15 day
AGS [14] = experiment: Induction of apoptosis in human AGS cells assessed as necrotic cells at 0.5 uM incubated for 48 hrs by annexin V-FITC and PI staining based flow cytometry analysis (reference value: 0.44%); type: functional
HGC-27 [15] = experiment: Induction of autophagy in human HGC-27 cells assessed as upregulation of LC3 I protein level at 0.5 to 2 uM incubated for 48 hrs by Western blotting analysis; type: functional, cell-based; conditions: dose 0.5-2 µM
B16-F10 = experiment: Antiproliferative activity against mouse B16-F10 cells assessed as inhibition of cell proliferation incubated for 72 hrs by MTT assay; type: functional, cell-based; conditions: B16-F10, 72 h
HGC-27 [16] = experiment: Induction of apoptosis in human HGC-27 cells assessed as necrotic cells at 2 uM incubated for 48 hrs by annexin V-FITC and PI staining based flow cytometry analysis (reference value: 0.062%); type: functional
HGC-27 [17] = experiment: Induction of autophagy in human HGC-27 cells assessed as upregulation of ATG5 protein level at 0.5 to 2 uM incubated for 48 hrs by Western blotting analysis; type: functional, cell-based; conditions: dose 0.5-2 µM
AGS [18] = experiment: Downregulation of Bcl-xl expression in human AGS cells at 0.5 to 2 uM incubated overnight by Western blotting analysis; type: functional, cell-based; conditions: dose 0.5-2 µM
AGS [19] = experiment: Downregulation of SRSF1 mRNA expression in human AGS cells incubated for 24 hrs by SYBR green dye based RT-qPCR analysis; type: functional, cell-based; conditions: dose 0.5-2 µM
HCT-116 = experiment: Antiproliferative activity against human HCT-116 cells assessed as inhibition of cell proliferation incubated for 72 hrs by MTT assay; type: functional, cell-based; conditions: HCT-116, 72 h
AGS [20] = experiment: Induction of cell cycle arrest in human AGS cells assessed as increase in P21 expression at 0.5 to 2 uM by Western blotting analysis; type: functional, cell-based; conditions: dose 0.5-2 µM
AGS [21] = experiment: Induction of apoptosis in human AGS cells assessed as increase in cleaved caspase-3 expression at 0.5 to 2 uM incubated overnight by Western blotting analysis; type: functional, cell-based; conditions: dose 0.5-2 µM
HGC-27 [22] = experiment: Antiproliferative activity against human HGC-27 cells assessed as inhibition of cell proliferation incubated for 72 hrs by MTT assay; type: functional, cell-based; conditions: HGC-27, 72 h
HGC-27 [23] = experiment: Antitumor activity against human HGC-27 cells xenografted in male BALB/c nude mouse assessed as tumor growth inhibition at 100 mg/kg, ip administered every day for 15 days relative to control; type: functional; conditions: HGC-27, 360 h, time 15 day, read-out: TGI
AGS [24] = experiment: Induction of cell cycle arrest in human AGS cells assessed as reduction in CyclinE2 expression at 0.5 to 2 uM by Western blotting analysis; type: functional, cell-based; conditions: dose 0.5-2 µM
AGS [25] = experiment: Induction of apoptosis in human AGS cells assessed as early apoptotic cells at 2 uM incubated for 48 hrs by annexin V-FITC and PI staining based flow cytometry analysis (reference value: 4.44%); type: functional
HGC-27 [26] = experiment: Downregulation of SRSF1 mRNA expression in human HGC-27 cells at 2 uM incubated for 24 hrs; type: functional, cell-based
AGS [27] = experiment: Induction of apoptosis in human AGS cells assessed as late apoptotic cells at 1 uM incubated for 48 hrs by annexin V-FITC and PI staining based flow cytometry analysis (reference value: 3.15%); type: functional
HGC-27 [28] = experiment: Induction of apoptosis in human HGC-27 cells assessed as late apoptotic cells at 0.5 uM incubated for 48 hrs by annexin V-FITC and PI staining based flow cytometry analysis (reference value: 5.02%); type: functional
AGS [29] = experiment: Induction of apoptosis in human AGS cells assessed as viable cells at 0.5 uM incubated for 48 hrs by annexin V-FITC and PI staining based flow cytometry analysis (reference value: 92.0%); type: functional; conditions: read-out: Activity
HGC-27 [30] = experiment: Induction of autophagy in human HGC-27 cells assessed as upregulation of LC3 II protein level at 0.5 to 2 uM incubated for 48 hrs by Western blotting analysis; type: functional, cell-based; conditions: dose 0.5-2 µM
HGC-27 [31] = experiment: Downregulation of RNA splicing pathway in human HGC-27 cells at 2 uM incubated for 24 hrs by GESA; type: functional, cell-based
HGC-27 [32] = experiment: Downregulation of RNA splicing pathway in human HGC-27 cells at 2 uM incubated for 24 hrs by KEGG enrichment analysis; type: functional, cell-based
HGC-27 [33] = experiment: Induction of apoptosis in human HGC-27 cells assessed as increase in cleaved caspase-3 expression at 0.5 to 2 uM incubated overnight by Western blotting analysis; type: functional, cell-based; conditions: dose 0.5-2 µM

CC(C)[C@]12O[C@H]1[C@@H]1O[C@]13[C@]1(O[C@H]1C[C@H]1C4=C(CC[C@@]13C)C(=S)OC4)[C@@H]2O
selectivity ratio [1]: 6.56
Activity (HGC-27 [2]): Active
Activity (AGS [3]): Active
Activity (AGS [4]): 17.2%
pIC50 (MCF7): 6.12
Activity (HGC-27 [5]): 6.12%
Activity (HGC-27 [6]): 9.29%
Activity (HGC-27 [7]): Active
Activity (AGS [8]): Active
pIC50 (AGS [9]): 6.19
Activity (HGC-27 [10]): Active
Activity (AGS [11]): Active
viability at 0.5 µM (HGC-27 [12]): 85.9%
pIC50 (SGC-7901): 5.74
Activity [13]: Non-toxic
Activity (AGS [14]): 0.55%
Activity (HGC-27 [15]): Active
pIC50 (B16-F10): 6.48
Activity (HGC-27 [16]): 0.16%
Activity (HGC-27 [17]): Active
Activity (AGS [18]): Active
Activity (AGS [19]): Dose-dependent-effect
pIC50 (HCT-116): 6.40
Activity (AGS [20]): Active
Activity (AGS [21]): Active
pIC50 (HGC-27 [22]): 6.48
inhibition in vivo at 100 mg/kg (HGC-27 [23]): 82.7%
Activity (AGS [24]): Active
Activity (AGS [25]): 31.6%
Activity (HGC-27 [26]): Active
Activity (AGS [27]): 17%
Activity (HGC-27 [28]): 10.5%
viability at 0.5 µM (AGS [29]): 82.3%
Activity (HGC-27 [30]): Active
Activity (HGC-27 [31]): Active
Activity (HGC-27 [32]): Active
Activity (HGC-27 [33]): Active
